Source: patent US20210087184A1, “AMINO-BENZOISOTHIAZOLE AND AMINO-BENZOISOTHIADIAZOLE AMIDE COMPOUNDS” (Aerie Pharmaceuticals, Inc., priority 2018, published 2021)
Counter-ions that a name gives are not always drawn.

Assay: Topical pharmaceutical composition administered to the eyes (Examples 246-253)
Format: in vivo
Settings: for intraocular pressure / neuroprotective agent: 0.50 wt % topical eye drop composition of Example 246
Description: Topical pharmaceutical compositions for lowering intraocular pressure are prepared by conventional methods and formulated as follows: […]
A compound according to this disclosure is used as the 6-aminobenzoisothiazole derivative. […]

[1] = 0.50 wt % topical eye drop composition of Example 246, twice per day

Structure (SMILES)	intraocular pressure	allergic symptoms [1]	dry eye syndrome [1]	neuroprotective agent	hyperemia, redness and ocular irritation (0.50 wt % topical eye drop composition of Example 246, as needed)
O=C(NCc1ccccn1)c1ccc([C@H]2C[C@@H]2C(=O)Nc2ccc3cnsc3c2)cc1 [Example E150, 4-((1S,2S)-2-(benzoisothiazol-6-ylcarbamoyl)cyclopropyl)-N-(pyridin-2-ylmethyl)benzamide]	substantially decreases	substantially decreases	relieves	–	–
NCC(C(=O)Nc1ccc2cnsc2c1)c1ccsc1 (stereo not drawn) [Example E49, 3-amino-N-(benzoisothiazol-6-yl)-2-(thiophen-3-yl)propanamide dihydrochloride]	substantially decreases	–	–	–	–
Cl.Cl.NCC(C(=O)Nc1ccc2cnsc2c1F)c1ccsc1 (stereo not drawn) [3-amino-N-(7-fluoro-benzoisothiazol-6-yl)-2-(thiophen-3-yl)propanamide dihydrochloride]	substantially decreases	–	–	serves as a neuroprotective agent	–
NC(CC(=O)Nc1ccc2cnsc2c1)c1ccsc1 (stereo not drawn) [Example E6, 3-amino-N-(benzoisothiazol-6-yl)-3-(thiophen-3-yl)propanamide dihydrochloride]	substantially decreases	–	–	serves as a neuroprotective agent	–
CN(C)CC(C(=O)Nc1ccc2cnsc2c1)c1ccsc1 (stereo not drawn) [Example E44, 3-(dimethylamino)-N-(benzoisothiazol-6-yl)-2-(thiophen-3-yl)propanamide dihydrochloride]	–	–	–	–	substantially decreases
